Measured values as given in patent publication US8217035B2, “Pyrimidine derivatives used as PI-3-kinase inhibitors” (Novartis AG, priority 2006, dated 2012).
Read-outs that look alike come from different tables or passages of the source.

Columns and labels:
[1] = tested on: A2780 ovarian cancer cells; assay: Cellular proliferation in A2780 cells, Cell Titer Glo (Biological Method 4); type: cell-based; conditions: Homo sapiens
Method: In addition, many of the compounds of Table 1 were tested to determine their inhibitory activity in a cellular proliferation assay according to Biological Method 4.
The ability of the compounds of the invention to inhibit cellular proliferation were determined by using Cell Titer Glo, a commercially available assay from Promega Corporation. A2780 ovarian cancer cells were seeded in TC treated 96-well plates at a density of 1,000 per well in DMEM, 10% FBS, 1% Sodium Pyruvate, and 1% Penicillin Streptomycin for a minimum of 2 hrs prior to addition of compound. For each concentration of test compound, 2 μl (500×) aliquots of compound or 100% DMSO diluted in 500 μl of culture medium for 2× concentration then diluted 1× on the Cells. Cells were incubated for 72 hrs at 37° C., 5% CO2. After the 72 hour incubation, Cell Titer Glo reagent is added to determine number of viable cells remaining after exposure to the compound, and the EC50 value was calculated. The assay was performed according to the manufacturer's instruction (Promega Corporation, Madison, Wis. USA). Each experimental condition was performed in duplicate.

PI3 kinase alpha = PI3 kinase alpha (Homo sapiens, UniProt P42336); assay: PI3K ATP depletion assay (Biological Method 1, Assay 3; KinaseGlo luminescence); type: biochemical; conditions: ATP depletion assay, read-out: PI3 Kinase Alpha, IC50
PI3 kinase alpha, sequence (P42336 whole entry): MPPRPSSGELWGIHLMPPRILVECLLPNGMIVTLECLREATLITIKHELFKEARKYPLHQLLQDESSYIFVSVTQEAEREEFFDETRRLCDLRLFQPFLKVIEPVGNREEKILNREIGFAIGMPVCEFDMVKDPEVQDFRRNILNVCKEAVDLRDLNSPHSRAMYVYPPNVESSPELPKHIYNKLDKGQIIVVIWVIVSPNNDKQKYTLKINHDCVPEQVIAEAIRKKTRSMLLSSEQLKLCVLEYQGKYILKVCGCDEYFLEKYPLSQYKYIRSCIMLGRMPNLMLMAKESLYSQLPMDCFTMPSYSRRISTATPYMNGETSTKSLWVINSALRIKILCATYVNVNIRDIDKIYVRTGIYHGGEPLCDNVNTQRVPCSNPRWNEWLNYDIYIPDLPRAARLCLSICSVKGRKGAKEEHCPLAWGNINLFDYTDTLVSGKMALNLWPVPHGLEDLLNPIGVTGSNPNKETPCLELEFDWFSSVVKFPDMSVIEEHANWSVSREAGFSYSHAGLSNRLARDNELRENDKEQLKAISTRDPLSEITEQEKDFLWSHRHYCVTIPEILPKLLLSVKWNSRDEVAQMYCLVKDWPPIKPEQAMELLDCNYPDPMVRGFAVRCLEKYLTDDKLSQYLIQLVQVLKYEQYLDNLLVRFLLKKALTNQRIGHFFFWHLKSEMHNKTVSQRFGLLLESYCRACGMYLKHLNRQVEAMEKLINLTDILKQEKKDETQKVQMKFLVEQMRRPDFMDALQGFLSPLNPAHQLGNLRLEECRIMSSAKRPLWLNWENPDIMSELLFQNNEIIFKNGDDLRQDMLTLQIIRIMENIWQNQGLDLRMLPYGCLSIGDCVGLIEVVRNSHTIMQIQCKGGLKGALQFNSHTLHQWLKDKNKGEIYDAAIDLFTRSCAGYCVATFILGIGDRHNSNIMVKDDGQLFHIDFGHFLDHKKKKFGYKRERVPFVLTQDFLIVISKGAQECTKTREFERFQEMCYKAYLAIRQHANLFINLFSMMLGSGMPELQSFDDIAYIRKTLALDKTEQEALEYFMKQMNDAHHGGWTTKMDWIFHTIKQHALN
PI3 kinase alpha, sequence (P27986 whole entry partner): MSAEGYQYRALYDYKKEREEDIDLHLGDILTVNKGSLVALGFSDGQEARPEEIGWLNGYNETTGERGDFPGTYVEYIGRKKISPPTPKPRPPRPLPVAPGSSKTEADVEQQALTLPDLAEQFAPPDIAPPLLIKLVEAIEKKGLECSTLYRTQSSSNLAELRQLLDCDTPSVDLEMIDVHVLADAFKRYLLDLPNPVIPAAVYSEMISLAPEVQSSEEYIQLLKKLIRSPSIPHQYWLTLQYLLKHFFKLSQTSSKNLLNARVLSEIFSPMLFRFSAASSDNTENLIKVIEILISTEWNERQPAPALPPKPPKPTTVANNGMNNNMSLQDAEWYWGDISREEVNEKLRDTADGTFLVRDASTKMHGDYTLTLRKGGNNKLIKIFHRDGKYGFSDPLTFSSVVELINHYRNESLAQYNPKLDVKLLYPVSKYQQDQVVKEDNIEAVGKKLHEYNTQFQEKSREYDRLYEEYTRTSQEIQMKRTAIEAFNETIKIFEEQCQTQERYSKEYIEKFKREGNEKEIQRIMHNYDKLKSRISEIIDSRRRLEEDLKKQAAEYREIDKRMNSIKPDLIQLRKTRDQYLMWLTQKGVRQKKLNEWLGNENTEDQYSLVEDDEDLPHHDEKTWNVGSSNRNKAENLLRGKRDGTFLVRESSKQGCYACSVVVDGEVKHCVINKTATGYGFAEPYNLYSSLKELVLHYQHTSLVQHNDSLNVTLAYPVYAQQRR
Method: The PI3 kinase alpha IC50 values shown in Table 1 were determined according to the ATP depletion assay as disclosed herein in Biological Method 1.
Assay 3: ATP Depletion Assay
Compounds to be tested are dissolved in DMSO and directly distributed into a black 384-well plate at 1.25 μL per well. To start the reaction, 25 μL of 10 nM PI3 kinase and 5 μg/mL 1-alpha-phosphatidylinositol (PI) are added into each well followed by 25 μL of 2 μM ATP. The reaction is performed until approx 50% of the ATP is depleted, and then stopped by the addition of 25 μL of KinaseGlo solution purchased from Promega. The stopped reaction is incubated for 5 minutes and the remaining ATP is then detected via luminescence.

[2] = ovarian cancer cell line A2780, Biological Method 4

CN(c1cc(-c2cnc(N)nc2)nc(N2CCOCC2)n1)C1CCOCC1 [Compound 6]
EC50 ([1]; ovarian cancer cell line A2780): < 10000 nM | IC50 (PI3 kinase alpha): < 1000 nM

COCCNc1cc(-c2cnc(N)nc2)nc(N2CCOCC2)n1 [Compound 14]
EC50 ([1]; ovarian cancer cell line A2780): < 1000 nM | IC50 (PI3 kinase alpha): < 1000 nM

CC(C)(C)Nc1cc(-c2cnc(N)nc2)nc(N2CCOCC2)n1 [Compound 16]
EC50 ([1]; ovarian cancer cell line A2780): < 1000 nM | IC50 (PI3 kinase alpha): < 1000 nM

Nc1cc(C(F)(F)F)c(-c2cc(N3CCCCC3=O)nc(N3CCOCC3)n2)cn1 [Compound 17]
EC50 ([1]; ovarian cancer cell line A2780): < 1000 nM | IC50 (PI3 kinase alpha): < 1000 nM

Nc1cc(C(F)(F)F)c(-c2cc(N3CCN(c4ccccc4)C3=O)nc(N3CCOCC3)n2)cn1 [Compound 18]
EC50 ([1]; ovarian cancer cell line A2780): < 1000 nM | IC50 (PI3 kinase alpha): < 1000 nM

CC(=O)N1CCC(Oc2cc(-c3cnc(N)cc3C(F)(F)F)nc(N3CCOCC3)n2)CC1 [Compound 19]
EC50 ([1]; ovarian cancer cell line A2780): < 1000 nM | IC50 (PI3 kinase alpha): < 1000 nM

CC(C)(C)OC(=O)N1CCC[C@H](Oc2cc(-c3cnc(N)cc3C(F)(F)F)nc(N3CCOCC3)n2)C1 [Compound 20]
EC50 ([1]; ovarian cancer cell line A2780): < 1000 nM | IC50 (PI3 kinase alpha): < 1000 nM

CC(=O)N1CC[C@H](Oc2cc(-c3cnc(N)cc3C(F)(F)F)nc(N3CCOCC3)n2)C1 [Compound 22]
EC50 ([1]; ovarian cancer cell line A2780): < 10000 nM | IC50 (PI3 kinase alpha): < 1000 nM

Nc1cc(C(F)(F)F)c(-c2cc(O[C@H]3CCOC3)nc(N3CCOCC3)n2)cn1 [Compound 26]
EC50 ([1]; ovarian cancer cell line A2780): < 10000 nM | IC50 (PI3 kinase alpha): < 1000 nM

Nc1ncc(-c2cc(Nc3nccc(C(F)(F)F)n3)nc(N3CCOCC3)n2)c(C(F)(F)F)n1 [Compound 216]
EC50 [1, 2]: < 10000 nM | IC50 (PI3 kinase alpha; Biological Method 1): < 1000 nM

Nc1cc(C(F)(F)F)c(-c2cc(Oc3ccc4ncccc4c3)nc(N3CCOCC3)n2)cn1 [Compound 217]
EC50 [1, 2]: < 10000 nM | IC50 (PI3 kinase alpha; Biological Method 1): < 1000 nM

CCN(CC)C(=O)Cc1csc(Nc2cc(-c3cnc(N)cc3C(F)(F)F)nc(N3CCOCC3)n2)n1 [Compound 218]
EC50 [1, 2]: < 10000 nM | IC50 (PI3 kinase alpha; Biological Method 1): < 1000 nM

Nc1cc(Cl)c(-c2cc(Nc3ccncc3C(F)(F)F)nc(N3CCOCC3)n2)cn1 [Compound 219]
EC50 [1, 2]: < 10000 nM | IC50 (PI3 kinase alpha; Biological Method 1): < 1000 nM

Nc1cc(C(F)(F)F)c(-c2cc(N3CCOC(CN4CCCC4)C3)nc(N3CCOCC3)n2)cn1 (stereo not drawn) [Compound 220]
EC50 [1, 2]: < 25000 nM | IC50 (PI3 kinase alpha; Biological Method 1): < 10000 nM

Nc1cc(C(F)(F)F)c(-c2cc(N3CCCOCC3)nc(N3CCOCC3)n2)cn1 [Compound 221]
EC50 [1, 2]: < 10000 nM | IC50 (PI3 kinase alpha; Biological Method 1): < 1000 nM

CN(C)CCOc1ccc(-c2cc(-c3cnc(N)nc3)nc(N3CCOCC3)n2)cn1 [Compound 223]
EC50 [1, 2]: < 10000 nM | IC50 (PI3 kinase alpha; Biological Method 1): < 1000 nM

Nc1ccc(-c2cc(Nc3ccc4cn[nH]c4c3)nc(N3CCOCC3)n2)cn1 [Compound 227]
EC50 [1, 2]: < 10000 nM | IC50 (PI3 kinase alpha; Biological Method 1): < 1000 nM

Nc1ncc(-c2cc(C(=O)Nc3ccncc3)nc(N3CCOCC3)n2)cn1 [Compound 230]
EC50 [1, 2]: < 10000 nM | IC50 (PI3 kinase alpha; Biological Method 1): < 1000 nM

Nc1ncc(-c2cc(C(=O)Nc3cccnc3)nc(N3CCOCC3)n2)cn1 [Compound 231]
EC50 [1, 2]: < 10000 nM | IC50 (PI3 kinase alpha; Biological Method 1): < 1000 nM

CNC(=O)c1cc(-c2cnc(N)nc2)nc(N2CCOCC2)n1 [Compound 232]
EC50 [1, 2]: < 25000 nM | IC50 (PI3 kinase alpha; Biological Method 1): < 1000 nM

Nc1ncc(-c2cc(C(=O)N3CCNCC3)nc(N3CCOCC3)n2)cn1 [Compound 233]
EC50 [1, 2]: < 10000 nM | IC50 (PI3 kinase alpha; Biological Method 1): < 1000 nM

Nc1ncc(-c2cc(C(=O)N3CCCCC3)nc(N3CCOCC3)n2)cn1 [Compound 234]
EC50 [1, 2]: < 25000 nM | IC50 (PI3 kinase alpha; Biological Method 1): < 1000 nM

CN1CCN(C(=O)c2cc(-c3cnc(N)nc3)nc(N3CCOCC3)n2)CC1 [Compound 235]
EC50 [1, 2]: < 10000 nM | IC50 (PI3 kinase alpha; Biological Method 1): < 1000 nM

N#Cc1cc(-c2cnc(N)nc2)nc(N2CCOCC2)n1 [Compound 237]
EC50 [1, 2]: < 10000 nM | IC50 (PI3 kinase alpha; Biological Method 1): < 1000 nM

CS(=O)(=O)c1cccc(Nc2cc(-c3cnc(N)cc3C(F)(F)F)nc(N3CCOCC3)n2)c1 [Compound 238]
EC50 [1, 2]: < 10000 nM | IC50 (PI3 kinase alpha; Biological Method 1): < 1000 nM

N#Cc1ccnc(Nc2cc(-c3cnc(N)cc3C(F)(F)F)nc(N3CCOCC3)n2)c1 [Compound 239]
EC50 [1, 2]: < 10000 nM | IC50 (PI3 kinase alpha; Biological Method 1): < 1000 nM

Nc1cc(C(F)(F)F)c(-c2cc(Nc3cc(Cl)ccn3)nc(N3CCOCC3)n2)cn1 [Compound 241]
EC50 [1, 2]: < 10000 nM | IC50 (PI3 kinase alpha; Biological Method 1): < 1000 nM

NC(=O)c1ccnc(Nc2cc(-c3cnc(N)cc3C(F)(F)F)nc(N3CCOCC3)n2)c1 [Compound 242]
EC50 [1, 2]: < 10000 nM | IC50 (PI3 kinase alpha; Biological Method 1): < 1000 nM

Nc1ccc(-c2cc(-c3ccc(N)nc3)nc(N3CCOCC3)n2)cn1 [Compound 245]
EC50 [1, 2]: < 10000 nM | IC50 (PI3 kinase alpha; Biological Method 1): < 1000 nM

Nc1ncc(-c2cc(Nc3cnc4ccccc4c3)nc(N3CCOCC3)n2)c(=O)[nH]1 [Compound 470]
EC50 ([1]; ovarian cancer cell line A2780): < 10000 nM

Nc1cc(C(F)(F)F)c(-c2cc(N3CCOCC3c3ccccc3)nc(N3CCOCC3)n2)cn1 (stereo not drawn) [Compound 486]
IC50 (PI3 kinase alpha): < 1000 nM

Nc1cc(C(F)(F)F)c(-c2cc(N3CCC(F)CC3)nc(N3CCOCC3)n2)cn1 [Compound 487]
IC50 (PI3 kinase alpha): < 1000 nM

Nc1cc(C(F)(F)F)c(-c2cc(Nc3ccc(NCC(=O)O)nc3)nc(N3CCOCC3)n2)cn1 [Compound 490]
IC50 (PI3 kinase alpha): < 1000 nM

CS(=O)(=O)Nc1cc(N)ncc1-c1cc(Nc2cnc3ccccc3c2)nc(N2CCOCC2)n1 [Compound 492]
IC50 (PI3 kinase alpha): < 1000 nM

Nc1ccc(-c2cc(Nc3cnc4c(Cl)ccc(OCCN5CCCC5=O)c4c3)nc(N3CCOCC3)n2)cn1 [Compound 493]
IC50 (PI3 kinase alpha): < 1000 nM

Nc1ccc(-c2cc(Nc3cnc4ccc(OC(F)(F)F)cc4c3)nc(N3CCOCC3)n2)cn1 [Compound 496]
IC50 (PI3 kinase alpha): < 1000 nM

Nc1ccc(-c2cc(-c3cccnc3N3CCN(CCO)CC3)nc(N3CCOCC3)n2)cn1 [Compound 498]
IC50 (PI3 kinase alpha): < 10000 nM

CC(C)N1CCN(c2nc3ccccc3cc2-c2cc(-c3ccc(N)nc3)nc(N3CCOCC3)n2)CC1 [Compound 502]
IC50 (PI3 kinase alpha): < 10000 nM

CN(C)c1ncccc1-c1cc(-c2ccc(N)nc2)nc(N2CCOCC2)n1 [Compound 504]
IC50 (PI3 kinase alpha): < 10000 nM

Nc1ccc(-c2cc(-c3ccc(NCCN4CCCC4)nc3)nc(N3CCOCC3)n2)cn1 [Compound 506]
IC50 (PI3 kinase alpha): < 1000 nM

CC(C)N1CCN(c2ccc(-c3cc(-c4ccc(N)nc4)nc(N4CCOCC4)n3)cn2)CC1 [Compound 507]
IC50 (PI3 kinase alpha): < 1000 nM

CS(=O)(=O)Nc1cc(-c2ccc(N)nc2)nc(N2CCOCC2)n1 [Compound 510]
IC50 (PI3 kinase alpha): < 10000 nM

Nc1ccc(-c2ccnc(N3CCOCC3)n2)cn1 [Compound 513]
IC50 (PI3 kinase alpha): < 1000 nM

CN(C)CCCCNc1cc(-c2cnc(N)nc2)nc(N2CCOCC2)n1 [Compound 517]
IC50 (PI3 kinase alpha): < 10000 nM

Nc1ncc(-c2cc(N[C@H]3CN4CCC3CC4)nc(N3CCOCC3)n2)cn1 [Compound 519]
IC50 (PI3 kinase alpha): < 1000 nM

Nc1ncc(-c2cc(O[C@@H]3CCCN(C(=O)c4ccc(F)cc4)C3)nc(N3CCOCC3)n2)c(N)n1 [Compound 525]
IC50 (PI3 kinase alpha): < 1000 nM

CC(C)C(=O)N1CC[C@H](Oc2cc(-c3cnc(N)cc3C(F)(F)F)nc(N3CCOCC3)n2)C1 [Compound 533]
IC50 (PI3 kinase alpha): < 10000 nM

Nc1cc(C(F)(F)F)c(-c2cc(O[C@@H]3CCN(C(=O)OCc4ccccc4)C3)nc(N3CCOCC3)n2)cn1 [Compound 535]
IC50 (PI3 kinase alpha): < 1000 nM

Nc1cc(C(F)(F)F)c(-c2cc(O[C@@H]3CCN(C(=O)c4ccccc4)C3)nc(N3CCOCC3)n2)cn1 [Compound 536]
IC50 (PI3 kinase alpha): < 1000 nM

CC(C)C(=O)N1CC[C@@H](Oc2cc(-c3cnc(N)cc3C(F)(F)F)nc(N3CCOCC3)n2)C1 [Compound 537]
IC50 (PI3 kinase alpha): < 1000 nM

CC(C)OC(=O)N1CC[C@@H](Oc2cc(-c3cnc(N)cc3C(F)(F)F)nc(N3CCOCC3)n2)C1 [Compound 538]
IC50 (PI3 kinase alpha): < 1000 nM

Nc1cc(C(F)(F)F)c(-c2cc(CNC(=O)OC3CCOC3)nc(N3CCOCC3)n2)cn1 (stereo not drawn) [Compound 542]
IC50 (PI3 kinase alpha): < 1000 nM

N#Cc1cnc(Nc2cc(-c3cnc(N)nc3C(F)(F)F)nc(N3CCOCC3)n2)s1 [Compound 545]
EC50 ([1]; ovarian cancer cell line A2780): < 25000 nM

Cc1c(-c2cnc(N)nc2)nc(N2CCOCC2)nc1-c1ccccc1S(=O)(=O)NC(C)(C)C [Compound 547]
IC50 (PI3 kinase alpha): < 10000 nM

Nc1ccc(-c2cc(N3CCOCC3)nc(N3CCOCC3)n2)c(F)n1 [Compound 550]
EC50 ([1]; ovarian cancer cell line A2780): < 10000 nM
